{"source": "patent US9636311B2", "about": "“N,N′-di-1 naphthylguanidine HCl (NAGH) and N,N′-di-p-nitrophenylguanidine HCl (NAD) treatment for stroke at delayed timepoints” (University of South Florida, priority 2012, dated 2017)", "tested_on": "microglial cells", "test": "Inhibition of microglial migration evoked by ATP", "type": "cell-based", "method": "(§1) FIG. 8 is a series of images confirming NAGH acts as a sigma receptor agonist. A) Concentration-response relationship for NAGH (closed circles) and DTG (open circles) inhibition of microglial migration evoked by 100 μM ATP. […] Points represent mean (±SEM) and for all points, n>9. B) Bar graph of the mean (±SEM) number of microglial cells migrating in response to 100 μM ATP when ATP was added alone (DMEM) or in the presence of 100 μM NAGH. Microglia were further exposed to no σ antagonist (Control), or the σ-1 antagonist, BD-1047 (10 μM, BD-1047), or the σ-2 antagonist, rimcazole (10 μM, Rimcazole). Asterisks denote significant difference between DMEM and NAGH within Control, BD-1047 and Rimcazole groups, respectively. Pound symbols indicate significant difference between Control, BD-1047 and Rimcazole within DMEM and NAGH groups, respectively. P<0.05 and n=24 for all groups.\nas §1, with “8A illustrates the concentration-response” for “8 is a series of images confirming NAGH acts as a sigma receptor agonist. A) Concentration-response”, “FIG. 8B depicts a bar” for “B) Bar”", "key": {"[1]": {"conditions": "migration evoked by 100 μM ATP, two-component Langmuir-Hill fit"}}, "note": "Read-outs that look alike come from different tables or passages of the source.", "data": [{"smiles": "Cl.N=C(Nc1cccc2ccccc12)Nc1cccc2ccccc12", "note": "[NAGH, N,N′-di-1-Naphthylguanidine hydrochloride]", "values": [{"measurement": "Microglial migration", "setting": "100 μM ATP, via σ-1 and σ-2 receptors", "value": "blocks microglial migration"}, {"measurement": "Emax, high affinity component", "setting": "[1]", "value": 0.43}, {"measurement": "Emax, low affinity component", "setting": "[1]", "value": 0.57}, {"measurement": "Hill coefficient, high affinity component", "setting": "[1]", "value": 2.2}, {"measurement": "Hill coefficient, low affinity component", "setting": "[1]", "value": 0.80}, {"measurement": "IC50", "setting": "migration evoked by 100 μM ATP, two-component Langmuir-Hill fit, read-out: IC50, high affinity component", "value": 0.75, "unit": "µM"}, {"measurement": "IC50", "setting": "read-out: IC50, low affinity component", "value": 84, "unit": "µM"}]}]}
